# Assay results: patent US20250129135A1, “Multi-Agonist and Use Thereof” (priority 2021, published 2025)
# Like-named read-outs stand apart in the source and are kept apart here. Starred links: 1 amine or outer side, 2 acyl side, 3 side chain; linkers in the order of their positions; H or OH if unused. Non-standard residues stand in square brackets, D forms with d. Residues, ends and D or L forms follow the SMILES beside them. Groups on a side chain read outwards from the residue. *: point of attachment. C20 diacid = O=C(O)CCCCCCCCCCCCCCCCCCC(=O)*; γGlu = O=C(O)[C@H](CCC(=O)[*:2])N[*:1]; αMeF = C[C@](N)(Cc1ccccc1)C(=O)O; αMeL = CC(C)C[C@](C)(N)C(=O)O; AEEA = NCCOCCOCC(=O)O; Ac3c = NC1(C(=O)O)CC1; Aib = CC(C)(N)C(=O)O
# How the values were obtained:
# Human GIP R = molecular target: T1, Human GIP R (Homo sapiens, UniProt P48546); assay: cAMP (HTRF) activity in CHO cells stably overexpressing GIP receptor; format: cell-based
# T1 construct: expressed in transfected cells; host or cells: CHO
# T1 sequence (P48546 22-466): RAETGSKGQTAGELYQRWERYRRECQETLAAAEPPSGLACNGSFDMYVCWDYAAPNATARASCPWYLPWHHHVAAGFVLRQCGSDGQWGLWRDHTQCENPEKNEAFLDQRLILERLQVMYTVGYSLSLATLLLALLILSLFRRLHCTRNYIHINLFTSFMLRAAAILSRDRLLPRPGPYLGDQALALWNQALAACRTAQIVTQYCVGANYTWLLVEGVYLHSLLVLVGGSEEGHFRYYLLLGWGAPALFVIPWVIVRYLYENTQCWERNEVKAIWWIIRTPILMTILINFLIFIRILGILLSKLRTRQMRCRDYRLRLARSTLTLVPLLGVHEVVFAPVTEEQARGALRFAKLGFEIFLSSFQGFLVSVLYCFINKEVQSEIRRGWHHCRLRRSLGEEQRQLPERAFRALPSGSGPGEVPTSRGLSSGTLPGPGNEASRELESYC
# Protocol: (§1) By measuring the cAMP signal response levels of the aforementioned cells, the agonistic activity of individual compound towards the corresponding receptor was determined. The intracellular cAMP content was measured using reagent kit available from Cisbio Corp. based on HTRF (homogeneous time-resolved fluorescence) technology.
# (§2) The cell fluid was transferred to 10 ml of HBSS for resuspension, and centrifuged at 1000 rpm for 5 minutes at room temperature.
# (§3) 10 μL cell suspension was added to each well in the 384 well plate. […] Using the ECHO liquid transfer system, 100 nL of the prepared compound solution was added to the corresponding cell suspensions in the 384 well plate, rotated and shaken at 1000 rpm for 1 minute to mix evenly, and then incubated at room temperature for 60 minutes. 10 μL of detection reagent was added to each well after drug incubation was completed, and incubation was performed in the kit at room temperature for 60 minutes. […] GraphPad Prism 5 plotting software was used to create compound concentration response curves and EC50 (nM) values was calculated.
# Human GCG R = molecular target: T2, Human GCG R (Homo sapiens, UniProt P47871); assay: cAMP (HTRF) activity in HEK-293 cells stably overexpressing human GCG receptor; format: cell-based; conditions: EC50 of human GCG / EC50 of compound
# T2 construct: expressed in transfected cells; host or cells: HEK-293
# T2 sequence (P47871 26-477): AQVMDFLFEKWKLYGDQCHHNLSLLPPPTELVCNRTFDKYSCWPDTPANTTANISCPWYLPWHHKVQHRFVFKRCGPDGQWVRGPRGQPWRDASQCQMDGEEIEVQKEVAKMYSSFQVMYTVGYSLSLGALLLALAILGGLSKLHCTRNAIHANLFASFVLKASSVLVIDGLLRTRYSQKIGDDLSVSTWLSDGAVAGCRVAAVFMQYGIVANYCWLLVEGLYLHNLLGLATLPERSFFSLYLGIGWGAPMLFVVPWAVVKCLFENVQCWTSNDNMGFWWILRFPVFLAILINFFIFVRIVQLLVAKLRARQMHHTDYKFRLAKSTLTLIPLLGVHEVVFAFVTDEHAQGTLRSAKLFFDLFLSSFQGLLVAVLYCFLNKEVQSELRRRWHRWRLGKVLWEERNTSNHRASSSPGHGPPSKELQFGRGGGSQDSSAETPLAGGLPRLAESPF
# Protocol: as §1, §2, §3
# RIN-m5F cells = format: cell-based, rat; conditions: for Rel. A (Relative Activity) on RIN-m5F: relative to GLP-1(7-37)
# Protocol: This experiment measured the cAMP level produced by the compound on RIN-mF cells.
# Frozen […] cells were placed in a 37° C. constant temperature water bath for rapid thawing and recovery. The cell solution was transferred to 10 ml of HBSS for resuspension, and centrifuged at 1000 rpm for 5 minutes at room temperature.
# (§4) 10 μL cell suspension was added to each well in the 384 well plate. […] Using the ECHO liquid transfer system, 100 nL of the prepared compound solution was added to the corresponding cell suspensions in the 384 well plate, rotated and shaken at 1000 rpm for 1 minute to mix evenly, and then incubated at room temperature for 60 minutes. 10 μL of detection reagent was added to each wells after drug incubation was completed, and incubation was performed for 60 minutes.
# 3T3-L1 adipocytes = conditions: for Rel. A (Relative Activity) on 3T3-L1 adipocyte: relative to GIP
# Protocol: Mouse 3T3-L1 precursor adipocytes can be induced to differentiate into mature adipocytes. […] After the cells became full and contacted with each other, DMEM differentiation medium containing 20% FBS, 0.5 mM IBMX, 0.4 ug/mL dexamethasone, and 5 ug/mL insulin was used to induce differentiation of 3T3-L1 adipocyte. After 5 days of induction and cultivation, DMEM medium containing […], 4 ug/ml insulin, and 10 uM rosiglitazone was used to continue induction and cultivation for 3 days. Then, DMEM medium containing 10% FBS was used to continue cultivation for 2-3 days to induce mature 3T3-L1 adipocytes.
# The cAMP level produced by the compound on 3T3-L1 adipocytes was determined in this experiment. The tested compound solution was diluted step by step according to a concentration gradient of 3 times, to obtain a total of 10 series of concentration solutions. The solutions were added to induced mature 3T3-L1 adipocytes and incubated at room temperature for 60 minutes. 10 μL detection reagent in the kit was added to each well after drug incubation, and incubated at room temperature for another 60 minutes. […] GraphPad Prism 5 plotting software was used to create compound concentration-effect curves and calculation was performed.
# [1] = system: human primary liver cells; format: cell-based
# Protocol: The cAMP levels produced by compounds on human primary liver cells were determined in this experiment. Human primary liver cells were purchased from Lonza (cell product number HUCPG).
# Frozen human primary liver cells were placed in a 37° C. constant temperature water bath for rapid thawing and recovery. The cell solution was transferred to 10 ml of HBSS for resuspension, and centrifuged at 1000 rpm for 5 minutes at room temperature.
# as §4, with “well” for “wells”
# Human GLP-1R = Human GLP-1R (Homo sapiens, UniProt P43220); assay: cAMP (HTRF) activity in HEK-293 cells stably overexpressing human GLP-1 receptor; format: cell-based; parameters: expressed in transfected cells; host or cells: HEK-293; conditions: for Human GLP-1R Rel. A (Relative Activity): EC50 of human GLP-1 (7-37) / EC50 of compound
# Human GLP-1R, sequence (P43220 24-463): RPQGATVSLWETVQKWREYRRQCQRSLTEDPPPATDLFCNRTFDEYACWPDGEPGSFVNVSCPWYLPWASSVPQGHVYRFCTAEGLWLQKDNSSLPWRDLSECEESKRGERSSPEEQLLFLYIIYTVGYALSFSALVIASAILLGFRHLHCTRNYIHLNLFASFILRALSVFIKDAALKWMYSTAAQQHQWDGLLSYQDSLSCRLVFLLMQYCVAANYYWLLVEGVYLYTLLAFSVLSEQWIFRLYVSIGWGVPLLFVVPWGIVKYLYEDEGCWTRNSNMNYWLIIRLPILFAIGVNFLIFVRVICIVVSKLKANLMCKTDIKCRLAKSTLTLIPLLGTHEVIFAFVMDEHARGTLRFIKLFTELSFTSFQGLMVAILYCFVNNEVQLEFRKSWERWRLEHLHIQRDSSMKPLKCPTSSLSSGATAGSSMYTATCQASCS
# Protocol: as §1, §2, §3
# C57 BL/6J DIO mice = assay: In vivo pharmacodynamics in high-fat diet induced obesity (DIO) mice; parameters: species or system mouse; conditions: Table 9-1; 3 nmol/kg; Day 15; Mean±SEM
# From the text: High-fat diet induced obesity (DIO) mice have characteristics such as obesity, elevated blood sugar, insulin resistance, and lipid abnormalities, all of which are very significant metabolic syndromes similar to a human body. The effects of the compounds of the present application on body weight, food intake, blood sugar, and lipids in C57 BL/6J DIO mice were studied.
# Obesity was induced in mice by feeding with a high-fat diet (60 kcal % of calories from fat). […] After grouping, one animal was raised in each cage for one week, during which each of the animals was injected subcutaneously (S.C.) with a solvent (1×PBS, 5 ml/kg) to pre-adapt the experimental operation process.
# After the preparation of animals, vehicle control or compounds were administered to groups of animals by subcutaneous injection, in which the compounds were dissolved in 1×PBS, the dosage was 5 ml/kg, and the administration operation was started at 9:00 am and conducted once every three days (Q3D) for 15 days. Throughout the entire experimental study, animal weight and food intake were measured daily before administration, and compared with initial weight and food intake of the same animal before administration to calculate a percentage change in animal weight (%) and cumulative food intake, so as to evaluate the impact of compounds on changes in body weight and food intake.
# At the end point of the experiment (Day 15), the body weight of the mice was measured, and then fasting blood glucose was measured by taking blood from the tail tip of broken tail without anesthesia. After the blood collection, the animals were anesthetized with CO2 and euthanized. Then, blood was taken from the heart and plasma was separated by centrifugation. The plasma was used to measure total cholesterol (TC), low-density lipoprotein cholesterol (LDL-C), triglycerides (TG), and blood insulin content. The liver was separated for homogenization, and then centrifuged to obtain the supernatant for determining triglyceride content in the liver.
# All results were expressed in Mean±SEM, and the results were analyzed by one-way ANOVA using GraphPad Prism 5 software, followed by Dunnett's post hoc test compared to the Vehicle control group. The difference at the p<0.05 level was considered statistically significant.
# [2] = stable transfected cell cAMP activity, at least 3 independent tests
compound,measurement,setting,value
CC[C@H](C)[C@H](NC(=O)[C@H](Cc1ccccc1)NC(=O)[C@H](C)NC(=O)C(C)(C)NC(=O)[C@H](CCC(N)=O)NC(=O)[C@H](C)NC(=O)[C@H](CCCCNC(=O)COCCOCCNC(=O)COCCOCCNC(=O)CC[C@H](NC(=O)CCCCCCCCCCCCCCCCCCC(=O)O)C(=O)O)NC(=O)[C@H](CCCCN)NC(=O)[C@H](CC(=O)O)NC(=O)[C@H](CC(C)C)NC(=O)[C@](C)(CC(C)C)NC(=O)[C@@H](NC(=O)[C@H](CO)NC(=O)[C@H](Cc1ccc(O)cc1)NC(=O)[C@H](CC(=O)O)NC(=O)[C@H](CO)NC(=O)[C@@H](NC(=O)[C@](C)(Cc1ccccc1)NC(=O)[C@@H](NC(=O)CNC(=O)[C@H](CCC(N)=O)NC(=O)C(C)(C)NC(=O)[C@@H](N)Cc1ccc(O)cc1)[C@@H](C)O)[C@@H](C)O)[C@@H](C)CC)C(=O)N[C@@H](CCC(=O)O)C(=O)N[C@@H](Cc1ccc(O)cc1)C(=O)N[C@@H](CC(C)C)C(=O)N[C@@H](CC(C)C)C(=O)N[C@@H](CCC(=O)O)C(=O)N[C@H](C(=O)N[C@@H](Cc1c[nH]cn1)C(=O)N1CCC[C@H]1C(=O)N[C@@H](CO)C(=O)N[C@@H](CO)C(=O)NCC(=O)N[C@@H](C)C(=O)N1CCC[C@H]1C(=O)N1CCC[C@H]1C(=O)NC1(C(=O)N[C@@H](CO)C(N)=O)CC1)[C@@H](C)O [Compound 2] (H-Y[Aib]QGT[αMeF]TSDYSI[αMeL]LDKK([AEEA-AEEA-γGlu-C20 diacid])AQ[Aib]AFIEYLLETHPSSGAPP[Ac3c]S-NH2; N-terminus assumed),Human GIP R Rel. A (Relative Activity),Human GIP R; EC50 of human GIP / EC50 of compound,724.00%
same,EC50,Human GIP R; [2],0.025 nM
same,Human GCG R Rel. A (Relative Activity),Human GCG R,24.57%
same,EC50,RIN-m5F cells,0.624 nM
same,Rel. A (Relative Activity) on RIN-m5F,RIN-m5F cells,165.38%
same,EC50,3T3-L1 adipocytes,2.49 nM
same,Rel. A (Relative Activity) on 3T3-L1 adipocyte,3T3-L1 adipocytes,152.63%
same,EC50,[1],2.37 nM
same,Rel. A (Relative Activity) on human primary liver cells,[1]; relative to GCG,164.32%
same,Human GLP-1R Rel. A (Relative Activity),Human GLP-1R,169.23%
same,EC50,Human GLP-1R; [2],0.026 nM
CC[C@H](C)[C@H](NC(=O)[C@H](Cc1ccccc1)NC(=O)[C@H](C)NC(=O)C(C)(C)NC(=O)[C@H](CCC(N)=O)NC(=O)[C@H](C)NC(=O)[C@H](CCCCNC(=O)COCCOCCNC(=O)COCCOCCNC(=O)CC[C@H](NC(=O)CCCCCCCCCCCCCCCCCCC(=O)O)C(=O)O)NC(=O)[C@H](CCCCN)NC(=O)[C@H](CC(=O)O)NC(=O)[C@H](CC(C)C)NC(=O)[C@](C)(CC(C)C)NC(=O)[C@@H](NC(=O)[C@H](CO)NC(=O)[C@H](Cc1ccc(O)cc1)NC(=O)[C@H](CC(=O)O)NC(=O)[C@H](CO)NC(=O)[C@@H](NC(=O)[C@](C)(Cc1ccccc1F)NC(=O)[C@@H](NC(=O)CNC(=O)[C@H](CCC(N)=O)NC(=O)C(C)(C)NC(=O)[C@@H](N)Cc1ccc(O)cc1)[C@@H](C)O)[C@@H](C)O)[C@@H](C)CC)C(=O)N[C@@H](CCC(=O)O)C(=O)N[C@@H](Cc1ccccc1)C(=O)N[C@@H](CC(C)C)C(=O)N[C@@H](CC(C)C)C(=O)N[C@@H](CCC(=O)O)C(=O)NCC(=O)NCC(=O)N1CCC[C@H]1C(=O)N[C@@H](CO)C(=O)N[C@@H](CO)C(=O)NC(C)(C)C(=O)N[C@@H](Cc1c[nH]cn1)C(=O)N1CCC[C@H]1C(=O)N1CCC[C@H]1C(=O)N1CCC[C@H]1C(=O)N[C@@H](CO)C(N)=O [Compound 24],Liver TG,C57 BL/6J DIO mice,30.7 ± 1.31 mg
CC[C@H](C)[C@H](NC(=O)[C@H](Cc1ccccc1)NC(=O)[C@H](C)NC(=O)C(C)(C)NC(=O)[C@H](CCC(N)=O)NC(=O)[C@H](C)NC(=O)[C@H](CCCCNC(=O)COCCOCCNC(=O)CC[C@H](NC(=O)CCCCCCCCCCCCCCCCCCC(=O)O)C(=O)O)NC(=O)[C@H](CCCCN)NC(=O)[C@H](CC(=O)O)NC(=O)[C@H](CC(C)C)NC(=O)[C@](C)(CC(C)C)NC(=O)[C@@H](NC(=O)[C@H](CO)NC(=O)[C@H](Cc1ccc(O)cc1)NC(=O)[C@H](CC(=O)O)NC(=O)[C@H](CO)NC(=O)[C@@H](NC(=O)[C@H](Cc1ccccc1)NC(=O)[C@@H](NC(=O)CNC(=O)[C@H](CCC(N)=O)NC(=O)C(C)(C)NC(=O)[C@@H](N)Cc1ccc(O)cc1)[C@@H](C)O)[C@@H](C)O)[C@@H](C)CC)C(=O)N[C@@H](CCC(=O)O)C(=O)N[C@@H](Cc1ccc(O)cc1)C(=O)N[C@@H](CC(C)C)C(=O)N[C@@H](CC(C)C)C(=O)N[C@@H](CCC(=O)O)C(=O)NC(C)(C)C(=O)NCC(=O)N1CCC[C@H]1C(=O)N[C@@H](CO)C(=O)N[C@@H](CO)C(=O)NCC(=O)N[C@@H](C)C(=O)N1CCC[C@H]1C(=O)N1CCC[C@H]1C(=O)N1CCC[C@H]1C(=O)N[C@@H](CO)C(N)=O [Compound 45] (H-Y[Aib]QGTFTSDYSI[αMeL]LDKK([AEEA-γGlu-C20 diacid])AQ[Aib]AFIEYLLE[Aib]GPSSGAPPPS-NH2),EC50,3T3-L1 adipocytes,8.11 nM
same,Rel. A (Relative Activity) on 3T3-L1 adipocyte,3T3-L1 adipocytes,46.89%
GLP-1(7-37) [reference compound],EC50,"RIN-m5F cells; cAMP, at least 3 independent tests, read-out: EC50 on RIN-m5F rat pancreatic islet tumor cells",1.03 nM
same,Rel. A (Relative Activity) on RIN-m5F,RIN-m5F cells,100.00%
same,Human GLP-1R Rel. A (Relative Activity),Human GLP-1R,100.00%
